Experimental data as given in paper PMC7441487 (mBio, 2020).
“Also recorded” adds a separate entry of the source. Read-outs that look alike come from different tables or passages of the source.

What was measured:
SARS-CoV-2^WK-521 [1] = assay: Immunocytochemistry, low-stringency assay (VeroE6 cells and SARS-CoV-2^WK-521); assay type: cell-based; details: VeroE6 cells; for Block of SARS-CoV-2^WK-521 infection (immunocytochemistry): overall statement over the concentrations tested
[2] = Cytotoxicity, WST-8 assay (Cell Counting Kit-8); assay type: cell-based; details: African green monkey, VeroE6 cells
SARS-CoV-2^WK-521 [3] = assay: Immunocytochemistry, high-stringency assay (VeroE6^TMPRSS2 cells and SARS-CoV-2^WK-521); assay type: cell-based; details: VeroE6^TMPRSS2 cells; for Observation by immunocytochemistry: 100 μM; for Block of infectivity and cytopathic effect of SARS-CoV-2^WK-521 (immunocytochemistry): overall statement, Fig. 3B; for Antiviral effect seen by immunocytochemistry: 1 and 10 μM
SARS-CoV-2 M^pro = SARS-CoV-2 M^pro (Severe acute respiratory syndrome coronavirus 2, UniProt P0DTD1); assay: M^pro molecular weight analysis with HPLC/MS (covalent binding); details: 100 μM compound, 37°C, 30 min
SARS-CoV-2^WK-521 [4] = assay: Antiviral assay: viral RNA in culture supernatants by RNA-qPCR (RT-qPCR), VeroE6 cells; assay type: cell-based; details: for Selectivity index: ratio of CC50 to EC50, VeroE6 cells
SARS-CoV-2^WK-521 [5] = details: VeroE6 cells; 100 μM; 3 days
VeroE6 cells = assay: Cytotoxicity, WST-8 assay (Cell Counting Kit-8); assay type: cell-based; details: concentrations up to 100 μM
HIV-1 protease = HIV-1 protease (Human immunodeficiency virus type 1 group M subtype B, UniProt P04585); assay: Thermal stability of HIV-1 protease by differential scanning fluorimetry (control); assay type: binding; details: HIV-1 protease 5 μM + 5 μM compound (1:1); protease alone 54.78°C
SARS-CoV-2 = details: Calu-3 cells exposed to SARS-CoV-2; cited from earlier work
[6] = Severe acute respiratory syndrome coronavirus 2, Vero C1008, read-out: EC50 ±SD

Row | Compound | Observation by immunocytochemistry (SARS-CoV-2^WK-521 [1]; 10 μM) | Observation by immunocytochemistry (SARS-CoV-2^WK-521 [1]; 100 μM) | Block of SARS-CoV-2^WK-521 infection (immunocytochemistry) (SARS-CoV-2^WK-521 [1]) | CC50 at 3 days [2] [µM] | Observation by immunocytochemistry (SARS-CoV-2^WK-521 [3]) | Block of infectivity and cytopathic effect of SARS-CoV-2^WK-521 (immunocytochemistry) (SARS-CoV-2^WK-521 [3]) | EC50 (SARS-CoV-2^WK-521 [4]; [6]) [µM] | Selectivity index (SARS-CoV-2^WK-521 [4]) | further results
1 | CCN(CC)CCCC(C)Nc1ccnc2cc(Cl)ccc12 (stereo not drawn) [Chloroquine, chloroquine] | slightly block infectivity | almost all the cells were shed from the wells | failed to block the infectivity |  |  |  |  |  | Observation by immunocytochemistry (SARS-CoV-2^WK-521 [1]; 100 μM, listed as chloroquine): almost all VeroE6 cells were lost
2 | C=CCn1ccc2c(C(=O)Oc3cncc(Cl)c3)cccc21 [GRL-0820] |  |  | permitted viral breakthrough | > 100 | viral breakthrough had occurred | potently blocked; also recorded: permitted viral breakthrough | 23 ± 5 | >4.3 | Increase of the mass of M^pro (SARS-CoV-2 M^pro): 183.85 amu; Average mass of the major M^pro species with compound (SARS-CoV-2 M^pro; TOF MS): 34,037.21; EC50 (SARS-CoV-2^WK-521 [4]; Severe acute respiratory syndrome coronavirus 2, Vero C1008, read-out: Anti-SARS-CoV-2 EC50): 15 ± 18 µM
3 | Cc1cccc(C)c1OCC(=O)N[C@@H](Cc1ccccc1)[C@@H](O)C[C@H](Cc1ccccc1)NC(=O)[C@H](C(C)C)N1CCCNC1=O [Lopinavir, lopinavir] |  |  | failed to block SARS-CoV-2 infection | 51 ± 5 | most of the cells were lost | failed to block the infection | 19 ± 8 | 2.7 | Antiviral effect seen by immunocytochemistry (SARS-CoV-2^WK-521 [3]): no detectable antiviral activity
4 | O=C(Oc1cncc(Cl)c1)c1cccc2[nH]ccc12 [GRL-0920] | further suppression of viral replication | completely blocked; also recorded: complete | completely blocked the infectivity | > 100 | essentially no infected cells seen | potently blocked; also recorded: completely blocked | 8.6 ± 2.8 |  | Protection of virus-exposed cells (light microscopy) (SARS-CoV-2^WK-521 [5]): appeared to be protected
5 | CC(=O)Oc1ccccc1C(=O)Nc1ncc([N+](=O)[O-])s1 [Nitazoxanide, nitazoxanide] |  | only a few nuclei remained | did not block the infectivity | 88 ± 3 |  |  | 31 ± 6 | 2.8 | Observation by immunocytochemistry (SARS-CoV-2^WK-521 [1]; 1 and 10 μM): did not exert activity against the virus
6 | Cc1c(O)cccc1C(=O)N[C@@H](CSc1ccccc1)[C@H](O)CN1C[C@H]2CCCC[C@H]2C[C@H]1C(=O)NC(C)(C)C [Nelfinavir, nelfinavir] |  |  | failed to block SARS-CoV-2 infection | 53 ± 8 | most of the cells were lost | failed to block the infection | 3.1 | 17 | Antiviral effect seen by immunocytochemistry (SARS-CoV-2^WK-521 [3]): no detectable antiviral activity
7 | NC(=O)c1nc(F)c[nH]c1=O [Favipiravir, favipiravir] |  |  | failed to block SARS-CoV-2 infection | > 100 |  | failed to block the infection | > 100 |  | Cytotoxicity (in words) (VeroE6 cells): nontoxic at all concentrations tested
8 | CC(C)CN(C[C@@H](O)[C@H](Cc1cc(F)cc(F)c1)NC(=O)O[C@H]1C2COC3OCC1C3C2)S(=O)(=O)c1ccc2nc(NC3CC3)sc2c1 (stereo partly drawn) [GRL-142] |  |  |  |  |  |  |  |  | Tm of HIV-1 protease (HIV-1 protease): 87.13 °C
9 | CCC(CC)COC(=O)[C@H](C)N[P@](=O)(OC[C@H]1O[C@@](C#N)(c2ccc3c(N)ncnn23)[C@H](O)[C@@H]1O)Oc1ccccc1 [Remdesivir, remdesivir] | further suppression of viral replication | nearly complete | significantly blocked SARS-CoV-2 infection but allowed viral breakthrough | > 100 | essentially no infected cells seen | potently blocked; also recorded: permitted viral breakthrough | 1.2 ± 0.06 | >83 | Protection of virus-exposed cells (light microscopy) (SARS-CoV-2^WK-521 [5]): appeared to be protected
10 | CCN(CCO)CCCC(C)Nc1ccnc2cc(Cl)ccc12 (stereo not drawn) [Hydroxychloroquine, hydroxychloroquine] | slightly block infectivity | almost all the cells were shed from the wells; also recorded: virtually no cells were left | did not exert significant antiviral activity; also recorded: failed to block the infectivity | > 100 |  |  | 5.1 ± 3.4 | >20 | Cytotoxicity (in words) (VeroE6 cells): nontoxic at up to 100 μM
11 | N=C(N)c1ccc2cc(OC(=O)c3ccc(N=C(N)N)cc3)ccc2c1 [Nafamostat, nafamostat] |  |  | inactive against the virus | > 100 |  |  |  |  | Cytotoxicity (in words) (VeroE6 cells): nontoxic at all concentrations tested; Cytotoxicity seen in immunocytochemistry (SARS-CoV-2^WK-521 [1]): did not exert significant toxicity; also recorded: not significantly cytotoxic; Block of SARS-CoV-2^WK-521 infection (immunocytochemistry) (SARS-CoV-2^WK-521 [1]; listed as nafamostat): did not exert significant antiviral activity; also recorded: failed to block SARS-CoV-2 infection; EC50 (SARS-CoV-2): 5 nM
